Laboratory results from patent US20030224390A1, “Method of identifying conformation-sensitive binding peptides and uses thereof” (Karo Bio AB, priority 2000, published 2003).

How the values were obtained:
ERβ = ERβ (Homo sapiens, UniProt Q92731); test: Binding of the peptide probes to ERβ in the presence of modulators (Table 15b)
androgen receptor [1] = biological target: T1, androgen receptor (Homo sapiens, UniProt P10275); format: cell-based; set-up: expressed in transfected cells
T1 sequence (P10275 1-920): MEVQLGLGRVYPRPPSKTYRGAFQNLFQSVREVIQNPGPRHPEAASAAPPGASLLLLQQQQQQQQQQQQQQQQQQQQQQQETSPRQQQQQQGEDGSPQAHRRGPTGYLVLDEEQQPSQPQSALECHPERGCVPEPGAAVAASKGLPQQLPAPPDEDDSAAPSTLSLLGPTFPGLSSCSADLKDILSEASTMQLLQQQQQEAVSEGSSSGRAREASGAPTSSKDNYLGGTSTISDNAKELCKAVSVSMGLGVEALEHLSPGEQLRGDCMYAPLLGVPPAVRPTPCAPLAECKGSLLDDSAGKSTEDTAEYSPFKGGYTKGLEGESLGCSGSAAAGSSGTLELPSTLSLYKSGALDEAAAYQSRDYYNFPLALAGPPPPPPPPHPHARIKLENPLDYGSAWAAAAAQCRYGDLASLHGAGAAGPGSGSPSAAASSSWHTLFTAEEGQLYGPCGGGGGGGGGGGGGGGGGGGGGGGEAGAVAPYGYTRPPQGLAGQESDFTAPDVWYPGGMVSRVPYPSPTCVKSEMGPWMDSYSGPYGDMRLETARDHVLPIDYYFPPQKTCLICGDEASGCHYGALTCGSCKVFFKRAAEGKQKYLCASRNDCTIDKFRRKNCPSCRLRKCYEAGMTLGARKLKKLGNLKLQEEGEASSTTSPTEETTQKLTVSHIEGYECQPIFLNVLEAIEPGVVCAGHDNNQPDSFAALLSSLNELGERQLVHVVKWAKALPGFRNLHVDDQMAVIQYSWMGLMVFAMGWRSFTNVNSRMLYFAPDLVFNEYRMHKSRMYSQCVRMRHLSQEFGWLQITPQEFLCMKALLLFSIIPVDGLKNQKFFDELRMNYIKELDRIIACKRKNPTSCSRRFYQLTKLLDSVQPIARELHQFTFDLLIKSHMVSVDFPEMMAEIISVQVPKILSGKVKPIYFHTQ
Source text: We used a mammalian two-hybrid system to determine specificities of the AR-binding peptides previously identified, through screening of the aforementioned yeast library, as ligand-dependent in their binding activity. Ligand was provided to the cells so the interaction could be observed. The human hepatoma cell line, Huh-7, was used as the recipient of two-hybrid vectors, pM and pVP16 (Clontech) (FIGS. 6A and 6B), containing fusions with peptide and AR, respectively. According to Clontech literature, the Clontech vectors pM and VP16 generate fusions of protein X with the GAL4 DNA-BD and fusions of protein Y with the VP16AD, in the Mammalian MM Two-Hybrid Assay Kit (#K1602-1). (Note: pM and VP16 contain unique cloning sites in the same order and reading frame as the DNA-BD and AD, respectively, vectors in the yeast […] Two-Hybrid Systems.) A third vector, pG5CAT, provides a CAT reporter gene under the control of a GAL4-responsive element and minimal promoter of the adenovirus E1b. The three vectors are cotransfected into any suitable mammalian host cell line by standard methods. The interaction between proteins X and Y is then assayed by measuring CAT gene expression by any standard method. In the absence of activation (i.e., no protein-protein interaction), the minimal E1b promoter will not express significant levels of CAT.
Briefly, cells are seeded in a 24-well culture plate to a density of 50-80% confluence in phenol red-free media containing charcoal-dextran stripped fetal bovine serum (10%). Following incubation overnight, cells are transfected with plasmids pM-peptide, pVP16-AR, pCMV-b-gal, and p5XGAL-Luc3 DNAs using lipofectamine 2000 (LifeTech) according to the manufacturer's protocol. Transfections are allowed to proceed for 6 hours and the transfection media is aspirated and replaced with recovery media for 18 hours. Following the recovery period, cells are treated with compound for 24 hours prior to cell harvesting. Cells are washed with PBS and then lysed using the lysis buffer from the Galacto-Light Plus β-galactosidase assay kit (Tropix). Assays for luciferase and β-galactosidase were performed as described by the manufacturer. Peptide/AR interactions are described in terms of the luciferase activity normalized for transfection efficiency using β-galactosidase activity (see FIG. 4A). Two types of useful information arose from these methods: 1) we generated a panel of useful peptide probes to analyze the conformational state of AR, and 2) we “fingerprinted” AR modulators with respect to AR conformation (FIG. 4B). […] FIG. 4B is the converse of 4A. It compares the ability of six ligands (DHT, MPA, CYP, RU486, FLUT and DHEAs to interact with AR in the presence of each of four peptides (D30, 5G11, B8H3 and […]). Thus, it is a “fingerprint” of each of the six ligands using a four peptide panel. (Note that “1269” and D30” refer to the same peptide.)

androgen receptor [2] = biological target: T1, androgen receptor; test: Yeast two-hybrid screening of unbiased X15 peptide library, ligand induced β-galactosidase activity (FIG. 3, Table 503); format: cell-based; set-up: expressed in transfected cells; host or cells: Saccharomyces cerevisiae PJ69-4α; ligand induced β-galactosidase activity, No Lig / ligand induced β-galactosidase activity, DHT / ligand induced β-galactosidase activity, CPA / ligand induced β-galactosidase activity, RU / ligand induced β-galactosidase activity, Test / ligand induced β-galactosidase activity, MPA: unit not given here; conditions: for ligand induced β-galactosidase activity, CPA / ligand induced β-galactosidase activity, DHT / ligand induced β-galactosidase activity, RU / ligand induced β-galactosidase activity, No Lig: yeast two-hybrid
Source text: Our library contained predominantly 15 random amino acid residues/peptide in order to identify motifs that might interact with nuclear receptor domains. If ligand is provided to the cells, one can screen for peptides that interact with the ligand-bound receptor. […] Included at the ends of the oligonucleotide were the synthetic restriction endonuclease cleavage sites, EcoRI or Mfe I (5′ end) and Sal I (3′ end). Oligonucleotides were annealed, then cleaved with excess restriction endonuclease and purified on agarose gels. The purified set of oligonucleotides was subcloned as an in-frame carboxy-terminal fusion to a Gal4 DNA binding domain (plasmid vector pMA424 derivative). […] The transformation mix was divided and grown on plates of selective media containing ligand and 25 mM 3-aminotriazole at 30° C. until colonies appeared in 3-7 days. […] Dihydrotestosterone (DHT) and medroxyprogesterone (MPA) were added to the media at 100 nM to identify peptides that interact with the receptor in the presence of ligand. After colonies appeared they were picked and dispersed into individual wells of a 96-well plate containing rich media (YPD).
To determine ligand dependence, two microliter aliquots were removed from the cell suspension, and arrayed and spotted onto each of two rectangular agar plates, one with 100 nM ligand and one without ligand. Growth was monitored daily.
A secondary test of ligand dependent activation was performed using the integrated GAL4-driven lacZ gene. Cell suspensions of the initial positive clones were diluted 20-fold into 20 microliters of rich media in a microplate and grown overnight at 30° C. in the presence and absence of ligand. Microplates were centrifuged for 5 minutes at 3000 rpm in a swinging table top centrifuge to pellet the yeast cells, and the overlying media was aspirated. […] An OD650 density determination was made to normalize the β-galactosidase activity. β-galactosidase activity was monitored following the addition of buffer containing chlorophenol red-β-galactopyranoside (CPRG) (Boehringer Mannheim) substrate at a final concentration of 0.5 mM. […] The maximum slope value of this measurement was normalized to cell density from the initial OD650 value, and the relative ligand dependence of β-galactosidase was determined by comparing the values plus and minus ligand.
In FIG. 3, all of these ligands were tested. The plasmids from true positives were extracted using standard yeast extraction protocols and re-transformed to verify the positive phenotype.

ERβ, sequence (Q92731 whole entry, species assumed): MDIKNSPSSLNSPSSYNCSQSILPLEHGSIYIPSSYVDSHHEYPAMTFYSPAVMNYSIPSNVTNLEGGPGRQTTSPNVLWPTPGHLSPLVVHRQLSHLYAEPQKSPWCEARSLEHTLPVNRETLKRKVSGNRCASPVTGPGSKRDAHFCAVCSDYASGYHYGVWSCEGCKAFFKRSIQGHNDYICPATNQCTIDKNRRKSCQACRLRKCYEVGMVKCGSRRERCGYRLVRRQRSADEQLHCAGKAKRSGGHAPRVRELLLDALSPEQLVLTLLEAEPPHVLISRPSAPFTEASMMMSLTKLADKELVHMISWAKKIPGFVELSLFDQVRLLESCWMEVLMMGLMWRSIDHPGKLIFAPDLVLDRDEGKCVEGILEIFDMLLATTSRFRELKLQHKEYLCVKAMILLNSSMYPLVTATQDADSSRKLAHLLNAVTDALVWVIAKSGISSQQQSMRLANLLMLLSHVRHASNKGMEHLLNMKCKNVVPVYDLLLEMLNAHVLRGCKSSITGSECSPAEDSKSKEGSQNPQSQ

Row | Compound | Equiv. (equivalency), peptide probe α/βIII on ERβ (ERβ) [%] | Equiv. (equivalency), peptide probe α/βIV on ERβ (ERβ) [%] | Equiv. (equivalency), peptide probe α/βV on ERβ (ERβ) [%] | Equiv. (equivalency), peptide probe βI on ERβ (ERβ) [%] | Equiv. (equivalency), peptide probe βIII on ERβ (ERβ) [%] | Equiv. (equivalency), peptide probe α/βI on ERβ (ERβ; probe α/βI, positive: % of maximum stimulation by the modulator used to isolate the probe, negative: % of reduction by ICI 182,780) [%] | luciferase normalized to β-galactosidase, CYP. (androgen receptor [1]) | luciferase normalized to β-galactosidase, DHT (androgen receptor [1]; mammalian two-hybrid, Huh-7 cells, ligand DHT) | luciferase normalized to β-galactosidase, MPA (androgen receptor [1]; mammalian two-hybrid, Huh-7 cells, ligand MPA) | luciferase normalized to β-galactosidase, RU486 (androgen receptor [1]; mammalian two-hybrid, Huh-7 cells, ligand RU486) | luciferase normalized to β-galactosidase, no compound (androgen receptor [1]; mammalian two-hybrid, Huh-7 cells, no compound) | Fold induction (androgen receptor [2]; untitled table before Table 503, values match DHT / No Lig of Table 503) | ligand induced β-galactosidase activity, CPA (androgen receptor [2]) | ligand induced β-galactosidase activity, DHT (androgen receptor [2]) | ligand induced β-galactosidase activity, RU (androgen receptor [2]) | ligand induced β-galactosidase activity, No Lig (androgen receptor [2])
1 | CCN(CC)CCOc1ccc(C(=C(Cl)c2ccccc2)c2ccccc2)cc1 [Clomiphene] | 34 | 0 | 13 | −62 | −61 |  |  |  |  |  |  |  |  |  |  | 
2 | C[C@]12CC[C@@H]3c4ccc(O)cc4CC[C@H]3[C@@H]1C[C@@H](O)[C@@H]2O [Estriol] | −57 | −75 | 0 | −96 | 77 | 81 |  |  |  |  |  |  |  |  |  | 
3 | O=C(c1ccc(OCCN2CCCCC2)cc1)c1c(-c2ccc(O)cc2)sc2cc(O)ccc12 [Raloxifene] | 77 | 0 | 0 | −53 | −71 |  |  |  |  |  |  |  |  |  |  | 
4 | EFHSRLRVEVVSWGIGSTCSQANSGRISYDL* [B8H3] |  |  |  |  |  |  | 10.47 | 11.6 | 11.33 | 3.879 | 0.1316 | 22 | 0.3927 | 3.807 | −0.0 | 0.1737
5 | EFPELLAMTRWGRHAALLEPQRLPPPRTTTQPQTEFERMFFFTRPMRTTGLLDLQPS [B2A7] |  |  |  |  |  |  |  |  |  |  |  |  | 0.2919 | 1.719 | 0.5 | 0.3711
